Reference: the OPERA property sets (Mansouri et al. 2018)

Compound | logP
O=C(O)COc1cccc(C(=O)O)c1 | 1.11
O=C(O)c1ccc2cccccc1-2 | 2.88
CC(=O)NC1CC(=O)N(c2ccccc2)C1=O (stereo unspecified) | -0.33
ClC(Cl)C(Cl)(Cl)Cl | 3.22
Nc1ccccc1Br | 2.11
CN(C)c1nc(N(C)C)nc(N(C)C)n1 | 2.73
NC(=O)Nc1ccc(Cl)cc1 | 1.8
COc1ccc(C=C(C(C)=O)C(C)=O)cc1 | 1.73
O=CNc1cccc(Cl)c1 | 1.9
COc1ccco1 | 1.44
CC(O)C(C)O (stereo unspecified) | -0.92
CCc1ccc2ccccc2c1 | 4.38
CCC1(CC)C(=O)NC(=O)NC1=O | 0.65
CCCCCCCCCCCCOS(=O)(=O)[O-].[Na+] | 1.6
C1CO1 | -0.3
CCCC(=NOCC)C1C(=O)CC2(CCC(C)CC2)OC1=O (stereo unspecified) | 4.07
CC(=O)c1cccc(F)c1 | 1.77
CCNc1nc(Cl)nc(NC(C)(C)C#N)n1 | 2.22
Cc1cccc2cccc(C)c12 | 4.26
Brc1ccccn1 | 1.42
FS(F)(F)(F)(F)c1ccccc1 | 3.36
Cc1c[nH]cn1 | 0.23
O=C(O)COc1ccc(Cl)c(Cl)c1 | 2.81
CCCCC(=O)OC | 1.96

Compound | logP
CCN(CC)CCOC(=O)c1ccc(N)cc1Cl | 2.86
CCCCNC(=O)c1ccc(S(N)(=O)=O)cc1 | 1.05
NC(=O)C(Cl)(Cl)Cl | 1.04
SC1=NCCCN1 | -0.68
Cc1c(Cl)ccc(OC(C)C(O)=Nc2ccccc2)c1Cl (stereo unspecified) | 4.8
O=C(O)C(c1ccc(-c2ccccc2)cc1)C(O)c1cccc(F)c1 (stereo unspecified) | 3.31
CCCC(=O)OCn1cnc(CSCCNC(=NC#N)NC)c1C | 1.6
NCCc1ccncc1 | -0.01
CNCc1ccccc1 | 1.52
CCN(CC)C(=S)SSC(=S)N(CC)CC | 3.88
NC(=O)[C@@H]1CCCN1C(=O)[C@H](Cc1cnc[nH]1)NC(=O)[C@@H]1CCC(=O)N1 | -2.46
CC(=O)Nc1ccc(S(=O)(=O)F)cc1 | 2.17
CCC1(CC)C(=O)NC(=O)N(C)C1=O | 1.15
CNC(=O)Oc1ccc(Cl)c(C)c1 | 2.57
CCC(N)=O | -0.66
c1ccc2c(c1)sc1ccccc12 | 4.38
Clc1ccc(Cl)nc1 | 2.4
C1=CCCC=CCC1 | 3.16
CCOC(=O)C(=Cc1cccc(OCC)c1)C(C)=O | 2.71
CC(=O)Nc1ccc2c(c1)[nH]c1ccccc12 | 3.02
Nc1ccccc1[N+](=O)[O-] | 1.85
NC(=O)c1cnccn1 | -0.6
CCOC(=O)C(C#N)=NNc1ccccc1Cl | 3.38
COc1ccc2c(c1)nc(N)n2C | 0.87

Compound | logP
Nc1ncnc2c1ncn2[C@@H]1O[C@H](CO)[C@@H](O)[C@H]1O | -1.05
CCCCNc1ccccc1 | 3.58
CC(=O)Oc1ccc(C(C)=O)cc1 | 1.29
ClC(Cl)=Nc1ccccc1 | 2.54
CCOC(=O)CCc1ccccc1 | 2.73
c1ccc(Oc2ccccn2)cc1 | 2.39
Fc1c(F)c(F)c(F)c(F)c1F | 2.55
O=S(=O)(Nc1ccccc1)c1ccccc1 | 2.58
Clc1cccc(-c2cc(Cl)ccc2Cl)c1 | 5.76
NC(=O)C(F)(F)F | 0.12
S=P(N1CC1)(N1CC1)N1CC1 | 0.53
CC(C)CCO[N+](=O)[O-] | 2.84
COc1ccc(C(=O)O)cc1 | 1.96
Cn1nc2ccccc2n1 | 1.64
COc1ccccc1C(C)=O | 1.82
Cc1cccc(C2CNCCO2)c1 (stereo unspecified) | 1.52
CC(CN(C)C)CN1c2ccccc2S(=O)(=O)c2ccccc21 (stereo unspecified) | 2.51
N[C@@H](CCC(=O)O)C(=O)O | -3.69
Cc1cccc(O)c1 | 1.96
CC=Cc1c(OC)cc(Cc2cnc(N)nc2N)cc1OCC | 2.65
NC(=O)CCCc1ccccn1 | -0.01
CC1Nc2cc(Cl)c(S(N)(=O)=O)cc2S(=O)(=O)N1 (stereo unspecified) | 0.08
FC(F)(Cl)C(F)(Cl)Cl | 3.16
